As a reminder, the IC50 is the concentration needed to halve the response being measured. As a reminder, the Kd is a measure of binding affinity in units of concentration. One may read the half-life as how long it takes for the measured level to halve. Read a low half-life as fast loss.

The structures appear in SMILES notation. Several values for one entry are separate records, joined by “and”; a condition that tells them apart may be missing. Equal values may be shown once.

The source of these data is article PMC5951806, “Rapid labelling and covalent inhibition of intracellular native proteins using ligand-directed N-acyl-N-alkyl sulfonamide” (Nature Communications, 2018).

One series deals with endogenous Hsp90. The experiment in a line: Hsp90 labelling with 11 in live HeLa cells in the presence of competitive Hsp90 inhibitors. As to conditions: 11 0.5 µM, 10 µM competitive inhibitor.
A further series has as its system Hsp90α. Details: method as in Supplementary References 1 and 2. As to conditions: reported for Hsp90α; ref Supplementary References 1 and 2; cited from earlier work.
In another series the target is T1, eDHFR (Escherichia coli, UniProt P0ABQ4).
T1 construct: thioredoxin (N, cleaved yes); made in house; host or cells: E. coli Top10
T1 sequence (P0ABQ4 whole entry): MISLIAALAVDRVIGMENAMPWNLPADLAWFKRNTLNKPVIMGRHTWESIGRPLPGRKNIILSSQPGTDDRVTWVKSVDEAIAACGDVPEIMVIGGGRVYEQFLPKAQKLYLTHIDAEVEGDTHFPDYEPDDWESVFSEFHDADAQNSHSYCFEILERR
The experiment in a line: Kinetic analysis of eDHFR labelling. As to conditions: for kL, labelling rate constant: eDHFR 300 nM, HEPES 1 mM pH 7.2, 37 °C, mean of triplicate ± s.d.; for kinact/KI / Kd: eDHFR, pH 7.2, 37 °C; for kinact/KI: read-out: kL/Kd, second-order rate constant; for Kd: from curve fitting of kapp vs reagent concentration. The format is biochemical.

Series [1] has as its target T2, FKBP12 (Homo sapiens, UniProt P62942).
T2 construct: GST (factor Xa site) (N, cleaved yes); made in house; host or cells: E. coli BL21 Star (DE3)
Kind of series: FKBP12 labelling in vitro (MALDI-TOF MS). The format is biochemical. As to conditions: for FKBP12 labelling yield: 5 µM FKBP12, 10 µM reagent, pH 7.2, 37 °C. An excerpt:
Recombinant human FKBP12 was obtained as described in Supplementary Methods.

A short description of series [2]: Evaluation of stabilities of LDNASA reagents (hydrolysis in aqueous buffer, HPLC). As to conditions: for fraction hydrolysed: after incubation for 48 h at 37 °C, 50 mM HEPES pH 7.2.
Method: FKBP12 labelling was conducted in test tubes by incubating each NASA reagent (1–3) (10 µM) with purified recombinant (wild-type) FKBP12[13] (5 µM, Mw: 11 914 Da) at 37 °C in a buffer solution (pH 7.2). The labelling reactions were monitored by matrix-assisted desorption/ionisation time-of-flight mass spectrometry (MALDI-TOF MS). […] The intrinsic reactivity of the reagents was evaluated by the hydrolysis rate in aqueous buffer.
LDNASA 1–3 (10 μM) and internal standard (Trimethoprim, 10 μM) were incubated in HEPES buffer (50 mM, pH 7.2) at 37 °C. Samples at different time points were taken and analysed by RP-HPLC.
The target of series [3] is T2, FKBP12. The experiment in a line: FKBP12 labelling in HeLa cell lysate (western blotting). As to conditions: 37 °C. In kind it is biochemical.
For the next series, the target named is T3, endogenous FKBP12 (Mus musculus, UniProt P26883).
T3 construct: endogenous FKBP12 inside live cells was specifically modified with biotin; endogenous in cells; host or cells: C2C12 mouse myoblast cells (ATCC)
T3 sequence (P26883 whole entry): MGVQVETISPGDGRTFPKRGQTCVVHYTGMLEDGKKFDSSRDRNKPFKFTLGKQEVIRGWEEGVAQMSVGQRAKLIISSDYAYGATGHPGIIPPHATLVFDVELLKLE
Kind of series: Chemical labelling of endogenous FKBP12 in C2C12 cells. To be noted: live C2C12 cells, 1 µM. In kind it is cell-based. The protocol:
We then conducted intracellular endogenous FKBP12 labelling. Mouse myoblast C2C12 cells were incubated in culture medium containing 1 for 10–120 min at 37 °C. The cells were lysed and analysed by western blotting. […] Although the reaction rate was slightly slower than that of the in vitro experiments, probably because of the low membrane-permeability of 1, it should be noted that the labelled band was detectable after just 10 min incubation with 1, highlighting the rapid kinetics of LDNASA chemistry.
Mouse myoblast C2C12 cells (ATCC) (2.0 × 10^5 cells) were cultured in Dulbecco’s modified Eagle’s medium (DMEM) supplemented with 10% foetal bovine serum (FBS, Gibco), penicillin (100 units/ml), streptomycin ([…]), and amphotericin B (250 ng/ml), and incubated in a 5% CO2 humidified chamber at 37 °C. The cells were then incubated in FBS-free DMEM containing reagent (1 μM) at 37 °C for 120 min. As control experiments, the labelling was conducted in the presence of Rapamycin (10 μM). For western blot analysis, after washing twice with PBS, the cells were lysed with RIPA buffer (pH 7.4, 25 mM Tris–HCl, 150 mM NaCl, 0.1% SDS, 1% Nonidet P-40, 0.25% deoxycholic acid) containing 1% protease inhibitor cocktail set III (Calbiochem). […] The samples were subjected to SDS-PAGE and electro-transferred onto an Immun-Blot PVDF membrane (Bio-Rad). The labelled FKBP12 was detected by chemiluminescence analysis using Streptavidin-HRP conjugate, rabbit anti-FKBP12 antibody (Abcam, ab2918, 1:1000) and anti-rabbit IgG-HRP conjugate (CST, #7074 S, 1:5000).
Supplementary Figure 11 Quantification of labelling yields of endogenous FKBP12 in C2C12 cells. After C2C12 cells were incubated with LDNAS A 1 (1 µM) for 1 h, the cells were washed twi ce with PBS and l ys ed with R IPA buffer (pH 7.4, 25 mM Tris–HCl, 150 mM NaCl, 0.1% SDS, 1% Nonidet P-40, 0.25% deoxycholic acid) containing 1% protease inhibitor cocktail and rapamycin (10 µM) , which were aliquoted as input samples. All biotinylated proteins in the lysate were captured with Streptavidin agarose beads ( S Av -agarose, Thermo ). The flow through and elution fraction, as well as i nput samples, wer e subjected to Western blotting analysis using SAv- HRP and anti-FKBP12 antibody. Th e labelling yields were calculated by the following equation( Supplementar y Equation1) :
LLLLLLLLLLLLLLLLLL yy LLLLLLyy ( %) = IILLII LLLLII LLIIyyFFFFFFFF12 ,IIIIIIIIII – IILLII LLLLII LLIIyyFFFFFFFF12,FFFFFFFF IIhrrFFIIrr h × 100 ( 1) IILLII LLLLII LLIIyyFFFFFFFF12 ,IIIIIIIIII
Experiments were performed in triplicates (Ex.1–Ex.3), and the labelling yields of endogenous FKBP12 in C2C12 cells at 1 h with 1 were estimated to be 78 ± 2 % (mean ± standard deviation). Control, a sample without labelling; *, Nonspecific band derived from […]

Series [4] deals with T2, FKBP12. The experiment in a line: Kinetic analysis of FKBP12 labelling. The format is biochemical. To be noted: for kL, labelling rate constant: FKBP12 100 nM, HEPES pH 7.2, 37 °C, mean of triplicate ± s.d.; for Kd: from curve fitting of kapp vs reagent concentration, FKBP12, pH 7.2, 37 °C; for kinact/KI: pH 7.2, read-out: kL/Kd, second-order rate constant. The text has this: With the optimal NASA reactive group in hand, we next investigated the reaction kinetics of LD chemistry in in vitro protein labelling. The labelling reaction of LD chemistry follows Eq. (1):1 P+R⇆KdPR→kLP^* where P is a native (non-labelled) protein, R is the reagent, PR is the native protein–reagent complex, P* is the labelled-protein, Kd is the dissociation constant and kL is the rate constant for the labelling process. When [R] > [P], the pseudo-first-order reaction rate (kapp) is given as follows (see Supplementary Methods)[35]:2 P+PR/P0= exp-kappt 3 kapp=kL/1+Kd∕R […]
The reaction time courses of FKBP12 labelling with various concentrations of 1 (200–2000 nM) were monitored by MALDI-TOF MS (Fig. 3b) and plotted to determine kapp using Eq. (2) (Fig. 3c). The values of kapp obtained in this manner were then plotted against the concentration of 1, which were well fitted by Eq. (3) (Fig. 3d). The labelling rate constant kL and the dissociation constant Kd of 1 were determined from curve fitting analysis to be (6.1 ± 0.6) × 10^−3 s^−1 and (2.1 ± 0.2) × 10^−7 M, respectively (the mean of triplicate ± standard deviation (s.d)) (Table 1).
The residual ratio of nonlabelled protein ([P] + [PR]/[P]0) were determined by MALDI-TOF MS (matrix: CHCA). The pseudo-first order reaction rates (kapp) were obtained by fitting the data to Eq. (2). Kinetic parameters were obtained by fitting the data to Eq. (3).
Kinetics of labelling reaction of LD chemistri es
The labelling reaction of LD chemistr y follows as Supplementary Equation (2) 3: where P is a native (non- labelled) protein, R is a reagent, PR is a native protein- reagent complex, P* is a labelled-protein, Kd is a dissociation constant, and k L is a rate constant for labelling process. Hyd r o l ys i s (deactivation) of LD reagents during the labelling process is negligible owing to these stabilities in buffer s olution (Supplementary Figure 3, also see
Supplementary R eferences 4–6) . The equations to be solved for the rate of labelling reaction […]
The solution of the equat ions is
According to the Supplementar y Equation (4), the k L and Kd values were obtained from the […]
Preparation of purif ied FKB P12

The next series has as its target FR. Details: method as in PMID 2552922. As to conditions: cited from earlier work.

T2 sequence (P62942 whole entry): as the sequence (P26883 whole entry) above, with T50M, I76T, S79P counted along it

`CC(C)NCCCn1c(Sc2cc(Cl)cc(Cl)c2)nc2c(N)ncnc21` [PU-WS13]: the “inhibition of Hsp90 labelling by 11” value with endogenous Hsp90 was “less potent inhibition”. Also, the concentration for half-maximal inhibition (IC50) in the series with Hsp90α is 27000 nM.
Consider `CCN(CC)c1ccc2cc(C(=O)Oc3c(Br)cc(C(=O)NCCCCCNC(=O)CCCCOc4c(OC)cc(Cc5cnc(N)nc5N)cc4OC)cc3Br)c(=O)oc2c1` [compound 7], for which, on eDHFR, the “kL, labelling rate constant” value is reported as “(3.4 ± 0.3) × 10^−4 s^−1”; the kinact/KI came out at 590 M⁻¹ s⁻¹; binding was put at a Kd of 580 nM.
Turning to `CCC(C)(C)C(=O)C(=O)N1CCCC[C@H]1C(=O)O[C@H](CCc1ccc(OC)c(OC)c1)c1cccc(OCC(=O)NCCCCCNC(=O)c2ccc(S(=O)(=O)N(CC#N)C(=O)CCCC[C@@H]3SCC4NC(=O)NC43)cc2)c1` (some centres unmarked) [compound 1], the FKBP12 labelling yield at FKBP12 [1] (within 15 min) worked out at 98%. Moreover, on FKBP12 [1] (FKBP12 labelling, 1 versus 2), the “initial rate, fold faster than 2” value is 49 fold. On FKBP12 [1] (FKBP12 labelling, 1 versus 3), the “initial rate, fold faster than 3” value is reported as 105 fold. For the same molecule, on FKBP12 [1] (in vitro, with rapamycin), the “FKBP12 labelling in the presence of rapamycin (competitive ligand)” value is given as “completely abolished”. The molecule also had a half-life at 10 µM in [2] (HEPES buffer, pH 7.2) of 43 h. Besides, the “ratio of unspecific to specific labelling” value at FKBP12 [3] (HeLa cell lysate with 1 µM FKBP12, reagent 1–20 µM, 1 h) is given as “less than 0.15”. For the same molecule, on endogenous FKBP12, the “incubation time after which the labelled band was detectable” value is on record as 10 min. The “labelling yield of endogenous FKBP12” value on endogenous FKBP12 (60 min, 37 °C) is 78 ± 2% and 78%. In addition, the “labelling yield of endogenous FKBP12” value at endogenous FKBP12 (120 min) is recorded as “almost quantitative”. Moreover, at FKBP12 [4], the “kL, labelling rate constant” value was “(6.1 ± 0.6) × 10^−3 s^−1”; binding was put at a Kd of 210 nM; the kinact/KI was 29000 M⁻¹ s⁻¹. For the same molecule, the “kL, fold higher than that of LDT 5” value at FKBP12 [4] (FKBP12 labelling) is on record as 635 fold.
Consider `CCC(C)(C)C(=O)C(=O)N1CCCC[C@H]1C(=O)O[C@H](CCc1ccc(OC)c(OC)c1)c1cccc(OCC(=O)NCCCCCNC(=O)c2ccc(S(=O)(=O)N(Cc3ccc([N+](=O)[O-])cc3[N+](=O)[O-])C(=O)CCCC[C@@H]3SCC4NC(=O)NC43)cc2)c1` (some centres unmarked) [compound 3], for which the FKBP12 labelling yield on FKBP12 [1] (after a 2-h incubation) stood at 17%. In [2], this molecule had a fraction hydrolysed of 5%.
For `CCC(C)(C)C(=O)C(=O)N1CCCCC1C(=O)OC(CCc1ccc(OC)c(OC)c1)c1cccc(OCC(=O)N2CCN(C(=O)c3cccc(S(=O)(=O)OCCOCCOCCNC(=O)CCCCC4SCC5NC(=O)NC54)c3)CC2)c1` (centres unmarked) [compound 5, reference compound], at endogenous FKBP12 (<120 min), the “endogenous FKBP12 labelling” value is on record as “failed to label FKBP12”. For the same molecule, on FKBP12 [4], the “kL, labelling rate constant” value was “(9.6 ± 0.2) × 10^−6 s^−1”; binding was put at a Kd of 210 nM; the kinact/KI was 45 ± 6 M⁻¹ s⁻¹.
Turning to `CN(Cc1cnc2nc(N)nc(N)c2n1)c1ccc(C(=O)N[C@@H](CCC(=O)O)C(=O)O)cc1` [methotrexate], the Kd at FR is about 200 nM.
In the case of `COc1cc(C(=O)C(=O)N2CCCCC2C(=O)NCCOCCOCC(=O)NCCCCCNC(=O)c2ccc(S(=O)(=O)N(CC#N)C(=O)CCCCC3SCC4NC(=O)NC43)cc2)cc(OC)c1OC` (centres unmarked) [compound 8], the “concentration required to obtain the same signal intensity as biotinylated FKBP12 labelled by 1” value at FKBP12 [3] (HeLa cell lysate with 1 µM FKBP12, 1 h, 1 at 1 µM) was 20 µM. In addition, at FKBP12 [4], the “kL, labelling rate constant” value is “(7.6 ± 1.7) × 10^−3 s^−1”; the Kd was determined as 100000 nM; the kinact/KI amounted to 74 ± 19 M⁻¹ s⁻¹. In addition, the “kL/Kd, fold less than 1” value at FKBP12 [4] (FKBP12 labelling) is recorded as 392 fold.
As for `CCC(C)(C)C(=O)C(=O)N1CCCC[C@H]1C(=O)O[C@H](CCc1ccc(OC)c(OC)c1)c1cccc(OCC(=O)NCCCCCNC(=O)c2ccc(S(=O)(=O)N(Cc3ccc([N+](=O)[O-])cc3)C(=O)CCCC[C@@H]3SCC4NC(=O)NC43)cc2)c1` (some centres unmarked) [compound 2], the FKBP12 labelling yield at FKBP12 [1] (after a 2-h incubation) amounted to 22%. Moreover, in [2], the fraction hydrolysed worked out at 5%.
`CCN(CC)c1ccc2cc(C(=O)NCCOCCOC(=O)n3cnc(CC(=O)NCCCCCNC(=O)CCCCOc4c(OC)cc(Cc5cnc(N)nc5N)cc4OC)c3)c(=O)oc2c1` [compound 6]: on eDHFR, the “kL, labelling rate constant” value was “(5.8 ± 0.1) × 10^−6 s^−1”; the kinact/KI came out at 11 ± 1 M⁻¹ s⁻¹; the Kd came to 550 nM.
